Measured values reported in ChEMBL document CHEMBL1201862, “PubChem BioAssay data set” (2004).
Structures can show the parent of a compound that is named as a salt. Calls of active or inactive are those of the source.

Key:
cells [1] = test: cells
Major prion protein = Major prion protein (Homo sapiens, UniProt P04156); type: functional, cell-based
[2] = viability loss in HEK293 cells – cell-based, plate reader, cherry-picked samples, cytotoxicity control, dose response (AID 743446); type: functional
[3] = blockade of melanocortin 4 receptor signaling – cell-based, plate reader, cherry pick, counter-screen for LGR2 antagonist project, dose response (AID 743444); type: functional;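 note: transfected HEK 293 cells stimulated with alpha-MSH peptide; potency of inhibitors of the alpha-MSH evoked signal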
BJ [4] = test: BJ-TERT fibroblast viability loss – cell-based, RAS-independent, luminescence, dose response (AID 1933); type: functional; conditions: Homo sapiens
[5] = DRD fibroblast viability loss – cell-based, non-viral oncogenic, luminescence, dose response (AID 1934); type: functional; conditions: Homo sapiens
BJ [6] = test: cells; type: functional, cell-based; conditions: Homo sapiens
[7] = A549 cell cytotoxicity, dose response, cytotoxicity control, plate reader, cherry-pick, antagonist series (AID 743412); type: functional, cell-based
BJ [8] = test: BJ-TERT-LT-ST fibroblast viability loss – cell-based, RAS-independent, luminescence, dose response (AID 1935); type: functional; conditions: Homo sapiens;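 note: BJ fibroblasts immortalized with TERT plus LT and ST oncogenes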
[9] = alpha-synuclein stem-loop luciferase translation blockers – H4 neuroglioma cells, luminescence, confirmation (AID 1988); type: functional, cell-based
[10] = toxicity toward HepG2 liver cells – cell-based, plate reader, cherry-pick, antagonist series, cytotoxicity control, dose response (AID 743416); type: functional
[11] = Luminescence Cell-Based Dose Response HTS to Identify Inhibitors of 5'UTR Stem-Loop Driven Prion Protein mRNA Translation in H4 Neuroglioblastoma Cells. [Related pubchem assays: 1827 (Project Summary), 1813 (Primary HTS)]; type: functional
[12] = blockers of bursicon-stimulated LGR2 cAMP reporter – cell-based, HEK293, CRE-luciferase reporter, cherry pick, set 2, dose response (AID 743343); type: functional;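 note: transfected cells were stimulated with diluted bursicon conditioned medium after compound addition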
Estrogen receptor beta [13] = biological target: T1, Estrogen receptor beta (Homo sapiens, UniProt Q92731);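 note: recombinant ER-beta bound to coactivator SRC1 peptide in presence of estradiol agonist; inhibitors block coactivator peptide binding and lower the FRET signal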
[14] = luciferase reporter signal suppression in cells – H4 neuroglioma cells, luminescence, dose response (AID 1990); type: functional, cell-based
Estrogen receptor beta [15] = biological target: T1, Estrogen receptor beta; test: blockers of SRC-3 recruitment to ERβ – biochemical, ELISA, streptavidin-HRP readout, orthogonal assay, confirmation (AID 1060)
[16] = Trypanosoma cruzi growth suppression in host cells – NIH3T3 host cells, beta-gal luminescence, confirmation (AID 2044); type: functional, cell-based;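 note: intracellular parasites grown in NIH/3T3 mouse fibroblasts as host cells; luminescent beta-galactosidase reporter signal from transgenic T. cruzi replicating inside host cells; inhibitors lower the luminescence signal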
[17] = NIH3T3 cell viability loss – ATP luminescence, mouse fibroblasts, counter-screen, dose response (AID 2010); type: functional, cell-based;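 note: cells exposed to compound for about 90 hours before reading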
cells [18] = test: cells; remark: listed apart in the source
Bcl-2-like protein 1 = Bcl-2-like protein 1 (Homo sapiens, UniProt Q07817); test: blockers of BCLXL peptide binding – biochemical, fluorescence polarization, 1536-well, selectivity assay for MCL1 inhibitor project, dose response (AID 2218)
H9c2 = test: cells; type: functional, cell-based; conditions: Rattus norvegicus, H9c2, Myocardium;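 note: confirmatory concentration-response retest of ultra-high-throughput screening hits for modulation of myocardial damage; cell death induced by hydrogen peroxide oxidative stress; compound pretreatment for 60 min then peroxide exposure for 2 h; potency is for protecting the cells against peroxide damage rather than for killing them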
[19] = biological target: Induced myeloid leukemia cell differentiation protein Mcl-1 (Homo sapiens, UniProt Q07820); test: blockers of MCL1 binding to BIM peptide – biochemical, fluorescence polarization, BIM-BH3 peptide, 1536-well, dose response (AID 2217)
[20] = biological target: T2, Heat shock factor protein 1 (Mus musculus, UniProt P38532); test: decrease of HSF1-responsive luciferase luminescence – cell-based, NIH3T3, dose retest, confirmation (AID 2382); type: functional;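 note: NIH3T3 fibroblasts with HSF1-driven luciferase reporter stressed by proteasome inhibitor MG132; luminescence from HSF1-driven luciferase expression after 8 hours of MG132 stress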
T2 sequence (P38532 whole entry): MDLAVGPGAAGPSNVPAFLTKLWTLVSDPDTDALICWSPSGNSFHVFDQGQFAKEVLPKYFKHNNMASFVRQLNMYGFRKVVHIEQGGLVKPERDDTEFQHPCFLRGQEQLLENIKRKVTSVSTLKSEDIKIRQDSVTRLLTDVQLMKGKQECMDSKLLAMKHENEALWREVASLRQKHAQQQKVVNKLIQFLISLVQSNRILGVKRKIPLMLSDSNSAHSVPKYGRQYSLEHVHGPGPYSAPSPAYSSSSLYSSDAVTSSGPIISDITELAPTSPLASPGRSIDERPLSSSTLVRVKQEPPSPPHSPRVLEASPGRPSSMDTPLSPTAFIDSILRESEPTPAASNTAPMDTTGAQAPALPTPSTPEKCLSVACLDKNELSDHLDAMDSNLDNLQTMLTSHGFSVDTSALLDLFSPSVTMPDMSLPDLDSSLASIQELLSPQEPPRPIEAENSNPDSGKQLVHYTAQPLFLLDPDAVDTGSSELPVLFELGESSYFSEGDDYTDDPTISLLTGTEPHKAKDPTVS

[21] = biological target: T3, COUP transcription factor 2 (Homo sapiens, UniProt P24468); test: Luminescence-based cell-based high throughput dose response assay to identify inhibitors of COUP-TFII (NR2F2).; type: functional;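 note: HEK293 cells transiently cotransfected with COUP-TFII expression vector and reporter; luciferase reporter luminescence driven by COUP-TFII from the pX2-168 reporter plasmid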
T3 sequence (P24468 whole entry): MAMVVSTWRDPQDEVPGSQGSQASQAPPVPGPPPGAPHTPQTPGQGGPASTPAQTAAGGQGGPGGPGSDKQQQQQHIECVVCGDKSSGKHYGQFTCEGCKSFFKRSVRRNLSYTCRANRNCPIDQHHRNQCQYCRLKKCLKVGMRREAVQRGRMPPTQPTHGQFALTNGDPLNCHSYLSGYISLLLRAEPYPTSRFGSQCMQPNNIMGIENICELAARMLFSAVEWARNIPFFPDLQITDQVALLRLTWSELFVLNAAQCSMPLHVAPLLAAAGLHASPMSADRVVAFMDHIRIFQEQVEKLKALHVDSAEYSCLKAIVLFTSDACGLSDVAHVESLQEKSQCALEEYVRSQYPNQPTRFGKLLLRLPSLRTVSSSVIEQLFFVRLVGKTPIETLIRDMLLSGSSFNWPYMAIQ

fMet-Leu-Phe receptor = biological target: T4, fMet-Leu-Phe receptor (Homo sapiens, UniProt P21462); test: formyl peptide receptor binders – dose response (AID 519); type: functional
T4 sequence (P21462 whole entry): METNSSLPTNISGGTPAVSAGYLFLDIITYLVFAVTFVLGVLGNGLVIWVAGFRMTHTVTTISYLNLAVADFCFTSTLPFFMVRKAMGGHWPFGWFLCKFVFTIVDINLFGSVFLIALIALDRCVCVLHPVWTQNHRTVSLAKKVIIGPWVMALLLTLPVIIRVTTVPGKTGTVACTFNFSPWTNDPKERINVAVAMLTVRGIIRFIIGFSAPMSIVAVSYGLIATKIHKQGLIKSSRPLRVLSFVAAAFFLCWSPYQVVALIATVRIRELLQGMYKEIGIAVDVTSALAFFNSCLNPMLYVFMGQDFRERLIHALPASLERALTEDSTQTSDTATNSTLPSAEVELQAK

[22] = blockers of HIV-1 envelope-mediated cell-cell fusion – cherry-pick, dose response (AID 652057); type: functional, cell-based
[23] = off-target signal loss in HeLa-CEM21 co-culture – HeLa F-luc CTL cells, cherry-picked, counter-screen for HIV-1 Env fusion inhibitor project, dose response (AID 652040); type: functional, cell-based;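 note: potency for signal decrease marking cytotoxic or nonspecific inhibition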
[24] = viability loss in CEM21 cells – cell-based, CellTiter-Glo luminescence, cherry-picked, cytotoxicity control for viral fusion inhibitor project, dose response (AID 652042); type: functional;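 note: potency for signal decrease meaning cytotoxicity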
[25] = blockers of HIV-1 ZM109 envelope-driven cell-cell fusion – HeLa effector, CEM target cells, luciferase, cherry-pick, dose response (AID 652058); type: functional, cell-based;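 note: luciferase signal from HIV-1 Env mediated cell-cell fusion of effector and target cells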
[26] = HIV-1 AD8 envelope cell-cell fusion blockers – cherry-pick, dose response (AID 652062); type: functional, cell-based;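 note: luciferase signal from cell-cell fusion driven by HIV-1 clade B AD8 Env; potency is for inhibitors of fusion seen as a drop in luminescence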
Paired box protein Pax-8 = Paired box protein Pax-8 (Homo sapiens, UniProt Q06710); test: PAX8 transcriptional activity inhibition in RMG-I – RMG-I cells, luciferase, cherry-pick, dose response (AID 687027); type: functional, cell-based;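 note: luciferase reporter driven by Pax8 target thyroperoxidase promoter measured by SteadyGlo luminescence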
[27] = OVCAR8 cell viability loss – plate reader, dry powder samples, PAX8 project, dose response (AID 743197); type: functional, cell-based; conditions: OVCAR-8
[28] = T. cruzi growth inhibition in host cells, dose response, cell-based, plate reader, dry powder, set 2 (AID 652275); type: functional
[29] = RKO cell viability reduction, dose response, CellTiter-Glo luminescence (AID 1117322); type: functional
[30] = cytotoxicity toward HCT116 cells – cell-based, CellTiter-Glo luminescence, IC50, dose response (AID 1117332); type: functional; conditions: HCT-116
[31] = Reduced DLD-1 viability, concentration-response, CellTiter-Glo luminescence (AID 1117352); type: functional
[32] = cytotoxicity toward Colo320 cells – cell-based, CellTiter-Glo luminescence, IC50, dose response (AID 1117334); type: functional; conditions: COLO 320
[33] = CellTiter-Glo luminescence survival assay, SW480 colon tumor line, concentration-response curve, half-maximal inhibitory concentration (AID 1117338); type: functional
[34] = SNU-C1 cell viability reduction, dose response, CellTiter-Glo luminescence (AID 1117323); type: functional, cell-based
[35] = cytotoxicity toward HT-29 cells – cell-based, CellTiter-Glo luminescence, IC50, dose response (AID 1117330); type: functional

CC(=O)c1sccc1NC(=O)c1ccccc1C(=O)O
IC50 (cells [1]): > 138 µM (inactive)
IC50 (Major prion protein): 3.09 µM (active)

Cc1cccc(NC(=O)c2onc3c2CCCC3)n1
AC50 [2]: 15.9 µM (active)
AC50 [3]: 5.51 µM (active)
EC50 (BJ [4]): 18 µM (active)
EC50 [5]: 13.3 µM (active)
EC50 (BJ [6]): 15 µM (active)
AC50 [7]: 19.6 µM (active)
EC50 (BJ [8]): > 150 µM (inconclusive)
EC50 [9]: 6.78 µM (active)
AC50 [10]: 19.4 µM (active)
EC50 [11]: 8.8 µM (active)
AC50 [12]: 3.23 µM (active)

Oc1ccccc1-c1nnc(SCCN2CCOCC2)n1Cc1ccccc1
IC50 (Estrogen receptor beta [13]): 3.51 µM (active)
EC50 [14]: 9.74 µM (active)
IC50 (Estrogen receptor beta [15]): < 23 nM (not active)
EC50 [9]: 7.29 µM (active)
EC50 [11]: 8.21 µM (active)

O=c1[nH]c2ccccc2c(=O)n1Cc1ccco1
IC50 (Estrogen receptor beta [13]): > 50 µM (not active)

CCc1ccc(CN2CCCC(CNC(=O)c3cccc(OC)c3OC)C2)cc1 (configuration not stated)
EC50 [16]: < 100 nM (active)
EC50 [17]: > 60 µM (not active)
EC50 (cells [18]): 370 nM (active)

CNc1ccccc(C(=O)/C=C/c2ccccc2OC)c1=O
IC50 (Bcl-2-like protein 1): > 109 µM (not active)
IC50 (H9c2): 11.5 µM (active)
IC50 [19]: > 109 µM (not active)

Cc1sc(NC(=O)c2ccco2)c(C(c2cccnc2)N2CCN(c3ccc(F)cc3)CC2)c1C (configuration not stated)
EC50 [16]: < 100 nM (active)
EC50 [17]: > 60 µM (not active)
EC50 (cells [18]): 385 nM (active)

COCCn1c(C)c(C)c2c(NCCc3ccccc3)ncnc21
AC50 [2]: > 52 µM (inactive)
AC50 [3]: 9.75 µM (active)
EC50 [20]: < 160 nM (active)
IC50 [21]: 40.1 µM (inactive)
AC50 [12]: 6.87 µM (active)

COc1ccc(CN2CCCC(CO)(Cc3cccc(Cl)c3)C2)cc1OC (configuration not stated)
EC50 [16]: < 100 nM (active)
EC50 [17]: > 30 µM (not active)
EC50 (cells [18]): 352 nM (active)

COc1ccc(C(=O)C2=C(O)C(=O)N(Cc3ccco3)C2c2ccc(OC)cc2OC)cc1 (configuration not stated)
Ki (fMet-Leu-Phe receptor): > 66.7 µM (inactive)

N=C(NOC(=O)COc1ccc2ccccc2c1Br)c1ccccn1
IC50 (cells [1]): > 138 µM (inactive)
IC50 (Major prion protein): 4.71 µM (active)

Nc1ncnc2c(C3OC(CO)C(O)C3O)scc12 (configuration not stated)
AC50 [22]: 322 nM (active)
AC50 [23]: 3.78 µM (active)
AC50 [24]: < 260 nM (active)
AC50 [25]: 2.04 µM (active)
AC50 [26]: 3.45 µM (active)
AC50 (Paired box protein Pax-8): < 0.26 µM (active)

O=C(C[C@@H]1CC[C@H]2[C@@H](COC[C@@H](O)CN2Cc2cccc(C(F)(F)F)c2)O1)NCc1ccc(F)cc1
AC50 [27]: 51.7 µM (active)
AC50 (Paired box protein Pax-8): 27.9 µM (active)

O=C1c2ccccc2S(=O)(=O)c2cc(N3CCN(C(=O)c4ccccc4)CC3)ccc21
AC50 [2]: > 52 µM (inactive)
AC50 [3]: 22.3 µM (active)
AC50 [7]: 23.5 µM (active)
AC50 [10]: > 52 µM (inactive)
AC50 [12]: 20.8 µM (active)

CC(C)N1C[C@@H](CN(C)Cc2ccc(Cl)cc2)Oc2c(NC(=O)c3ccncn3)cccc2C1=O
AC50 [28]: 0.00548 µM (active)

CN(C)C(=O)c1cccc(-c2ccc([C@@H]3[C@@H](CO)N4CCCCN(C(=O)C5CCC5)C[C@H]34)cc2)c1
AC50 [28]: 14.4 µM (active)

CCc1c(C)[nH]c2c(C#N)c(C)nn2c1=O
Ki (fMet-Leu-Phe receptor): 21.7 µM (inactive)

CCN(CCO)CCCC(C)Nc1ccnc2cc(Cl)ccc12 (configuration not stated) [HYDROXYCHLOROQUINE SULFATE]
IC50 [29]: > 20 µM (inactive)
IC50 [30]: > 20 µM (inactive)
IC50 [31]: > 20 µM (inactive)
IC50 [32]: > 20 µM (inactive)
IC50 [33]: > 20 µM (inactive)
IC50 [34]: > 20 µM (inactive)
IC50 [35]: > 20 µM (inactive)
